Values of other authors as cited in patent US12410474B2, “Methods, kits, and devices for diagnosing, prognosing, and treating psychiatric disorders in a patient” (Northwestern University, priority 2014, dated 2025).

How the values were obtained:
HTR2C = target: T1, HTR2C (Homo sapiens, UniProt P28335)
T1 sequence (P28335 33-458): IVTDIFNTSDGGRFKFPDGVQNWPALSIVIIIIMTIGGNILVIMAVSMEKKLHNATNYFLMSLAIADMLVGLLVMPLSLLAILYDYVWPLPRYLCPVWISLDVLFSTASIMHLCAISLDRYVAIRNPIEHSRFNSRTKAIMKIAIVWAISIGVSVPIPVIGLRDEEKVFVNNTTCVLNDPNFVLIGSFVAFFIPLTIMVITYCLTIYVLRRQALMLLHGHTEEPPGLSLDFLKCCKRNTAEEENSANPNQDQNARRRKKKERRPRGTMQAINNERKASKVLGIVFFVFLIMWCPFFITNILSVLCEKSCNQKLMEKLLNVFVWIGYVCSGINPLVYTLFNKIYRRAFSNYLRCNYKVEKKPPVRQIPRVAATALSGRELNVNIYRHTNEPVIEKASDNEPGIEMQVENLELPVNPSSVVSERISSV

[1] = tested on: HTR2C Ser23 and Cys23 isoreceptors; conditions: after prolonged pre-exposure to serotonin
HTR2A = HTR2A (Homo sapiens, UniProt P28223)
HTR2A, sequence (P28223 whole entry): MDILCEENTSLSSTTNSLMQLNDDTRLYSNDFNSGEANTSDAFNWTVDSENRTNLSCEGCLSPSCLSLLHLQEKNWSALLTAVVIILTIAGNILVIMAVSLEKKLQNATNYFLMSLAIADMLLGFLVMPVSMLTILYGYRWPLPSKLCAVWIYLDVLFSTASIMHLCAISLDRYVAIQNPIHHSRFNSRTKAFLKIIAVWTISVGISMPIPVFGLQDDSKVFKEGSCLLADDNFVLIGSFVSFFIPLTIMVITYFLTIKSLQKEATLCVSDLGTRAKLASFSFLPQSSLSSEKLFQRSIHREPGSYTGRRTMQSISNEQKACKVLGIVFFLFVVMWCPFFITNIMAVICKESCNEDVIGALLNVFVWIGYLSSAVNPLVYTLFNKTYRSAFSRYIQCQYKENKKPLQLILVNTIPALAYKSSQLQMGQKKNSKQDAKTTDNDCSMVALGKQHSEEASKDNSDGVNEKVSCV

functional activity at HTR2C (HTR2C)	SMILES	further results
neutral antagonists	O=C(CCCN1CCC2(CC1)C(=O)NCN2c1ccccc1)c1ccc(F)cc1 [spiperone]	
	Cn1ccc2cc3c(cc21)CCN3C(=O)Nc1cccnc1 [SB206553]	cell surface expression in Ser-receptors versus Cys-receptors [1]: greater cell surface expression; resensitization in Ser-receptors versus Cys-receptors [1]: more rapid resensitization
neutral antagonists	CN1CCN(CC/C=C2/c3ccccc3Sc3ccc(S(=O)(=O)N(C)C)cc32)CC1 [thiothixene]	
potent inverse agonists	O=C1NCCN1CCN1CCC(c2cn(-c3ccc(F)cc3)c3ccc(Cl)cc23)CC1 [sertindole]	functional activity at HTR2A (HTR2A): potent inverse agonists
neutral antagonists	CN(C)CCCN1c2ccccc2Sc2ccc(Cl)cc21 [chlorpromazine]	
neutral antagonists	CSc1ccc2c(c1)N(CCC1CCCCN1C)c1ccccc1S2 (stereo not drawn) [thioridazine]	

SMILES	functional activity at HTR2C (HTR2C)	further results
Cc1nc2n(c(=O)c1CCN1CCC(c3noc4cc(F)ccc34)CC1)CCCC2 [risperidone]	potent inverse agonists	
